According to US12667568B2, “Compositions and methods for the treatment and diagnosis of cancer” (The General Hospital Corporation, priority 2020, dated 2026):

Target: T1, TRDMT1 (Homo sapiens, UniProt O14717)
T1 construct: SCE WT cells were transfected with TA-KR and were cultured with 2.5 μM/L compound YW-1842 or not for 6 hours; endogenous in cells
T1 sequence (O14717 1-391): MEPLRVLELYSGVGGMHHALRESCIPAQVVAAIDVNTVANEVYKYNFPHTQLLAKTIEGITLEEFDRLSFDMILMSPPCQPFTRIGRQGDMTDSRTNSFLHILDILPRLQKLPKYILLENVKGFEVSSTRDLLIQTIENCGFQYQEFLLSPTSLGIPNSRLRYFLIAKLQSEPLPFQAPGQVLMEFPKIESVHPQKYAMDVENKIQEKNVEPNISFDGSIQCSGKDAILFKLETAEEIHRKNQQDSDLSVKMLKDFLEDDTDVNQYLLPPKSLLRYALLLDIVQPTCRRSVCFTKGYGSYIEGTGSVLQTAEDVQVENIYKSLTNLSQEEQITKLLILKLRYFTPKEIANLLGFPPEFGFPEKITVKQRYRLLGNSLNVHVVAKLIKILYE
Experiment: m5C staining at TA-KR DNA damage sites
Format: cell-based
Description: FIGS. 6A-6E show TRDMT1 Inhibitors specifically sensitizes cells to DNA damage agents. (FIG. 6A) SCE WT cells were transfected with TA-KR and were cultured with 2.5 μM/L compound YW-1842 or not for 6 hours, m^5C (n=3, 50 cells per replicated, Mean±SD) was stained and quantified. DR-GFP (FIG. 6B) or EJ5-GFP (FIG. 6C) cells were pre-treated with 2.5 μM/L compound YW-1842 for 6 h or TRDMT1 siRNA for 48 h, or DMSO. Then the cells were transfected with NLS-I-SceI plasmid to induce DSB. The efficiency of HR (FIG. 6B) or NHEJ (FIG. 6C) was analyzed by flow-cytometry (n=3, Mean f SD). (FIG. 6D) After seeding, MCF-7, HCC1954, and HCC1937 cells were pre-treated with or without 2.5 μM/L compound YW-1842 for 6 h, then cultured with chemotherapy drugs (1 μM/L Cisplatin; 1 μM/L ATRi AZ20; […]; 1 μM/L PARPi Olaparib for 10 days. The survival rate of these cells was analyzed (n=3, Mean±SD). (FIG. 6E) TRDMT1 KO U2OS cells were transfected with GFP-TRDMT1^WT or GFP-TRDMT1^G155V with or without 2.5 μM/L compound YW-1842, the survival rate of these cells after IR or Cisplatin was shown (n=3, Mean±SD).
The Olympus FV1000 confocal microscopy system (Cat. FIOPRDMYR-1, Olympus) and FV1000 software were used for the acquisition of images. Cells were cultured in 35 mm glass-bottom dishes (MatTek, P35GC-1.5-14-C) before observation. […] The intensity was measured by ImageJ 1.52i software. […]

COc1cc2nc(-n3cc(-c4ccc(S(C)(=O)=O)cc4)cn3)nc(-c3ccsc3)c2cc1OC [YW-1842, 6,7-dimethoxy-2-(4-(4-(methylsulfonyl)phenyl)-1H-pyrazol-1-yl)-4-(thiophen-3-yl)quinazoline]
m^5C inhibitory activity (2.5 μM/L, 6 hours, TA-KR sites (FIG. 6A)): almost equivalent to TRDMT1 depletion
inhibiting TRDMT1 recruitment, m^5C formation and HR efficiency at DNA damage sites (summary statement): performed well
